Measurements published in patent publication US7683211B2, “Jasmonate derivative compounds pharmaceutical compounds and methods of use thereof” (Ramot at Tel-Aviv University Ltd., priority 2003, dated 2010).
Where two headings read alike, the source gives them in different places.

How the values were obtained:
[1] = test system: Molt-4 lymphoblastic leukemia cells; assay: CellTiter 96 MTS cytotoxicity assay, Molt-4 leukemia cells; assay type: cell-based, human; conditions: for IC50: Homo sapiens, 24 h, Molt-4 at 2.5×10^4/ml
Protocol: (§1) Measurement of reduction in the number of living cells was determined by, the CellTiter 96 Aqueous Non-Radioactive Cell Proliferation Assay (Promega, Madison Wis.). Upon completion of a given experiment, MTS (a tetrazolium compound) at 333 μg/ml+phenazine methosulfate (at 25 μM) was added to each well of the 96-well plate for 1 hour at 37° C. This allowed for development of a color reaction in which dehydrogenases reduce the MTS in metabolically active cells. Since the cells were not washed before the addition of MTS, there were no potentially loosely adherent or non-adherent cells that could have been problematic. Soluble MTS formazan product was measured at a wavelength of 490 nm using a CERES 900 HDI ELISA reader (Bio-Tek Instruments, Inc, Highland Park, Vt.), Optical density is directly proportional to the number of living cells in culture. Cytotoxicity (%) was calculated in the following way: [(OD of control cells−OD of drug-treated cells)/OD of control cells]×100.
(§2) Molt-4 lymphoblastic leukemia cells (at 1.5×10^4/well), 3LL lung carcinoma cells (at 4×10^3/well), B16 melanoma cells (at 4×10^3/well), or HCT116 colon carcinoma cells (at 4×10^3/well) were seeded in 96-well plates and methyl jasmonate (MJ) or MJDB at 0.5 mM were added for 1 day. Optical density representing viable cells was determined by the CellTiter 96 Aqueous Non-Radioactive Cell Proliferation Assay (described above). Cytotoxicity was calculated as the % of control untreated cultures, mean±SD. n=3.
(§3) The optical density that represented viable cells was determined by the CellTiter 96 Aqueous Non-Radioactive Cell Proliferation Assay (Promega, Madison, Wis.), as described above. Cytotoxicity was calculated as % of control untreated cultures, mean±SE. n=3.
Biological assays were performed with a 1:1 mixture of the aforementioned tetra bromo isomers. More specifically, Molt-4 leukemic cells (at 2.5×10^4/ml) were incubated for one day in 96-well plates in the presence of different concentrations of either MJ or MJTB. The optical density that represented viable cells was determined by the CellTiter 96 Aqueous Non-Radioactive Cell Proliferation Assay (Promega, Madison, Wis.) as described above. Cytotoxicity is calculated as % of control untreated cultures, mean±SE. n=3.
Molt-4 (leukemia) cells (at 2.5×10^4/ml), and normal peripheral blood lymphocytes (PBL, at 2×10^5/ml) were incubated in 96-well plates for one day in the presence of different concentrations of MJTB. PBL were pre-incubated with 0.8 μg/ml phytohaemagglutinin +5 ng/ml TPA for 48 hours, to induce entrance into the cell cycle. These cells proliferate and therefore are similar in that respect to cancer cells, making the comparison more valid. The optical density that represented viable cells was determined by the CellTiter 96 Aqueous Non-Radioactive Cell Proliferation Assay (Promega, Madison, Wis.), as described above.
Molt4 leukemic cells (at 1.5×10^4/ml) were incubated for 1 day in the presence of different concentrations of halogenated derivatives of MJ. Specifically, these derivatives were MJS72f5 (one of R6 and R7 is iodo and the other is methoxy), MJS99 (R6 and R7 are each fluoro) and NJ-63 (one of R6 and R7 is bromo and the other is hydroxyl). The optical density that represented viable cells was determined by the CellTiter 96 Aqueous Non-Radioactive Cell Proliferation Assay (Promega, Madison, Wis.), described above. […] Another derivative.

B16 melanoma cells = assay: CellTiter 96 MTS cytotoxicity assay, B16 melanoma cells; assay type: cell-based
Protocol: as §1
as §2, with “Optical density representing viable cells was determined by the CellTiter 96 Aqueous Non-Radioactive Cell Proliferation Assay (described above).” left out, “n=3. […]” for “n=3.”

[2] = test system: peripheral blood lymphocytes from chronic lymphocytic leukemia (CLL) patients; assay: CellTiter 96 MTS cytotoxicity assay, CLL patient lymphocytes; assay type: cell-based, human; conditions: 1 day, several concentrations, FIG. 1; P<0.05 versus healthy donors
Protocol: as §1
(§4) In order to test the toxicity of MJDB towards human leukemia cells, peripheral blood lymphocytes from chronic lymphocytic leukemia (CLL) patients were harvested. […] The optical density that represented viable cells was determined by the CellTiter 96 Aqueous Non-Radioactive Cell Proliferation Assay (Promega, Madison, Wis.); an assay in which viable cells produce a colored product, as described above. […]

[3] = test system: peripheral blood lymphocytes from healthy donors; assay: CellTiter 96 MTS cytotoxicity assay, lymphocytes from healthy donors; assay type: cell-based, human; conditions: 1 day, several concentrations, FIG. 1
Protocol: as §1, §4

3LL lung carcinoma cells = assay: CellTiter 96 MTS cytotoxicity assay, 3LL lung carcinoma cells; assay type: cell-based, mouse; conditions: 0.5 mM, 1 day, FIG. 2, P<0.05
Protocol: as §1
as §2, with “Optical density representing viable cells was determined by the CellTiter 96 Aqueous Non-Radioactive Cell Proliferation Assay (described above).” left out

[4] = test system: HCT116 colon carcinoma cells; assay: CellTiter 96 MTS cytotoxicity assay, HCT116 colon carcinoma cells; assay type: cell-based, human; conditions: 0.5 mM, 1 day, FIG. 2, P<0.05
Protocol: as §1
as §2, with “Optical density representing viable cells was determined by the CellTiter 96 Aqueous Non-Radioactive Cell Proliferation Assay (described above).” left out

[5] = test system: 29M4.1 B lymphoma cells expressing wild type p53; assay: CellTiter 96 MTS cytotoxicity assay, 29M4.1 B lymphoma clone with wild type p53; assay type: cell-based; conditions: 1 day, several concentrations, FIG. 3
Protocol: as §1
(§5) A system of two B lymphoma clones originating from the same cell line (29M4.1) was used. These clones differed solely in the expression of wild type versus mutant p53. […] The optical density that represented viable cells was determined by the CellTiter 96 Aqueous Non-Radioactive Cell Proliferation Assay (Promega, Madison, Wis.).

[6] = test system: 29M4.1 B lymphoma cells expressing mutant p53; assay: CellTiter 96 MTS cytotoxicity assay, 29M4.1 B lymphoma clone with mutant p53; assay type: cell-based; conditions: 1 day, several concentrations, FIG. 3
Protocol: as §1, §5

[7] = test system: ATP levels in Molt-4 leukemia cells; assay: ATP determination assay (CellTiter-Glo) in Molt-4 cells; assay type: cell-based, human; conditions: MJDB at 1 mM (MJ at 3 mM) for 10, 30 or 60 minutes at 37° C., FIG. 4
Protocol: An ATP determination assay was used to assess the effect of MJDB on ATP levels in cancer cells. More specifically, Molt-4 cells (at 1×10^4/well) were seeded in 96-well opaque-walled plates and MJ at 3 mM or MJDB at 1 mM were added for 10, 30 or 60 minutes at 37° C. Untreated cells incubated in culture medium were used as control. ATT levels were determined by the CellTiter-Glo™ Luminescent Cell Viability Assay; an assay in which cells produce a lumineascence signal that is equivalent to the ATP concentration in the cell. ATP depletion is calculated as % of control untreated cultures, mean±SD. n=3.

[8] = test system: D122 (lung carcinoma) cells; assay: CellTiter 96 MTS cytotoxicity assay, D122 lung carcinoma cells; assay type: cell-based, human; conditions: Mus musculus, 24 h; D122 at 5×10^3/ml, one day incubation, MTS readout
Protocol: as §1, §3

[9] = test system: B16MDR (melanoma exhibiting multidrug resistance) cells; assay: CellTiter 96 MTS cytotoxicity assay, B16MDR melanoma cells; assay type: cell-based, human; conditions: Mus musculus, 24 h; B16MDR at 2×10^3/ml, one day incubation, MTS readout; read-out: IC50 (cytotoxicity), B16 MDR
Protocol: as §1, §3

[10] = CellTiter 96 MTS cytotoxicity assay, stimulated normal PBL; assay type: cell-based; conditions: PBL at 2×10^5/ml, pre-incubated with phytohaemagglutinin + TPA for 48 hours, one day with compound
Protocol: as §1
(§6) Molt-4 (leukemia) cells (at 2.5×10^4/ml), and normal peripheral blood lymphocytes (PBL, at 2×10^5/ml) were incubated in 96-well plates for one day in the presence of different concentrations of MJTB. […] The optical density that represented viable cells was determined by the CellTiter 96 Aqueous Non-Radioactive Cell Proliferation Assay (Promega, Madison, Wis.), as described above.

[11] = test system: normal peripheral blood lymphocytes (PBL); assay: as above; assay type: cell-based; conditions: PBL versus Molt-4
Protocol: as §1, §6

lymphomas in mice = conditions: from U.S. Pat. No. 6,469,061; cited from earlier work
[12] = one day, MJTB as 1:1 mixture of tetra bromo isomers (Example 6), read-out: IC50 (concentration exhibiting 50% cytotoxicity), Molt-4, MJTB versus MJ

SMILES | cytotoxic effect compared to methyl jasmonate, Molt-4 ([1]; 0.5 mM, 1 day, FIG. 2, P<0.05) | cytotoxic effect compared to methyl jasmonate, B16 (B16 melanoma cells; 0.5 mM, 1 day, FIG. 2, P<0.05) | cytotoxicity towards lymphocytes from CLL patients [2] | cytotoxicity towards lymphocytes from healthy donors [3] | cytotoxic effect compared to methyl jasmonate, 3LL (3LL lung carcinoma cells) | cytotoxic effect compared to methyl jasmonate, HCT116 [4] | cytotoxicity towards B lymphoma cells expressing wild type p53 [5] | cytotoxicity towards B lymphoma cells expressing mutant p53 [6] | ATP depletion [7] | IC50 ([1]; one day incubation, MTS readout (Example 5), read-out: IC50 (cytotoxicity), Molt-4) [µM] | IC50 [1, 12] [µM] | IC50 of MJTB smaller than that of MJ (fold) ([1]; Molt-4 cells, one day) | IC50 [8] [µM] | IC50 (B16 melanoma cells; 24 h, B16 at 2×10^3/ml, one day incubation, MTS readout) [µM] | IC50 [9] [µM] | IC50 at 1 day [10] [µM] | IC50 for normal peripheral blood lymphocytes relative to leukemic cells [11] | prevention of development of lymphomas in mice (lymphomas in mice)
CCC(Br)C(Br)CC1C(=O)CCC1CC(=O)OC (stereo not shown) [MJDB, methyl jasmonate di-bromide] | highly superior in its cytotoxic effect | highly superior in its cytotoxic effect | highly and selectively cytotoxic | cytotoxicity is minimal | highly superior in its cytotoxic effect | highly superior in its cytotoxic effect | equally cytotoxic | equally cytotoxic | rapid and strong ATP depletion | – | – | – | – | – | – | – | – | –
CCC(Br)C(Br)C[C@@]1(Br)C(=O)[C@@H](Br)CC1CC(=O)OC (stereo partly shown) [MJTB, methyl jasmonate tetra-bromide] | – | – | – | – | – | – | – | – | – | 8 | 8 | about 60 times | 50 | 80 | 80 | 250 | larger than that for leukemic cells by more than an order of magnitude | –
CC/C=C\CC1C(=O)CCC1CC(=O)OC (stereo not shown) [MJ, methyl jasmonate, reference compound] | – | – | – | – | – | – | – | – | – | – | 500 | – | – | – | – | – | – | effective in preventing development of lymphomas in mice
